Laboratory results taken from patent US20110097745A1, “Method For Detecting Microbes” (priority 2007, published 2011).
≈ marks a conversion by molar mass, not a printed value.

How the values were obtained:
Assay type in all cases: cell-based
[1] = tested on: infecting bacteria of urine samples; experiment: BLT antibiotic susceptibility of urine samples; parameters: BLT (luminescence): unit not given here; conditions: for BLT (luminescence): 3 hrs 37 C, concentrations given in Table 5; for antibiotic susceptibility of urine samples: key: R = resistant; S = susceptible
Procedure: Six fresh urine samples were obtained from a local clinic and examined for bacteriuria (>10^5 cells/mL urine) and the antibiotic susceptibility of the infecting bacteriuria. A tube containing a an antibiotic mixture that would eliminate all infecting bacteria but not effect the lux cells (Ampicillin, Kanamycin, Tetracyclin, and Chloramphenicol) served as a control.
Each urine sample was diluted in Medium 1 to yield a final concentration of 3%. 0.1 mL of the diluted samples were then incubated for 3 hrs. at 37 degrees Celsius in a microtitre plate, with or without an antimicrobial substance at the concentrations given in Table 5).
An equal volume of Medium 2 containing 10 ng/ml autoinducer and supplemented with 10^6 of the lux cells was then added to each well. The microtiter plate was then incubated at 28 degrees/Celsius and the luminescence was measured using a plate reader luminometer.
Luminescence was measured in the absence of antibiotics, in the presence of a mixture of antibiotics and in the presence of a single antibiotic from the mixture.
When the ratio of the luminescence measured in the presence of the single antibiotic to that measured in the presence of the antibiotic mix exceeds a second predetermined constant (e.g. 3) then the infecting bacteria are […] to the antibiotic.

S. typhimirium (772) = experiment: overnight disk diffusion test; conditions: 16 hrs 37 C
Procedure: (§1) Infecting bacteria (10^6 cells/ml from overnight grown cultures) were spread on LA plates on which 15 mm disks, saturated with various antibiotics, had been placed. After incubating the plates at 37 degrees Celsius for 16 hrs the zone of inhibition was determined for each strain. (Abbreviations used in FIG. 1a and Table 1a: CAP—Chloramphenicol; KAN—Kanamycin; AMP—Ampicillin; CEP—Cephamezin GEN—Gentamycin).

E. coli (W4110) = experiment: overnight disk diffusion test; conditions: 16 hrs 37 C
Procedure: as §1

[2] = tested on: infecting bacteria of urine samples; experiment: antibiotics disc inhibition zone, urine samples (standard analysis)
Procedure: A standard analysis (urine culture colony count) was performed to evaluate bacterial load (Table 5a) and antibiotic susceptibility (Table 5b).

S. typhi = experiment: microbe, parasite or virus in culture

SMILES | antibiotic susceptibility of urine samples ([1]; urine sample 1) | BLT (luminescence) ([1]; urine sample 1, 3% urine) | antibiotic susceptibility of urine samples ([1]; urine sample 2) | BLT (luminescence) ([1]; urine sample 2, 3% urine) | antibiotic susceptibility of urine samples ([1]; urine sample 3) | BLT (luminescence) ([1]; urine sample 3, 3% urine) | antibiotic susceptibility of urine samples ([1]; urine sample 4) | BLT (luminescence) ([1]; urine sample 4, 3% urine) | antibiotic susceptibility of urine samples ([1]; urine sample 5) | BLT (luminescence) ([1]; urine sample 5, 3% urine) | antibiotic susceptibility of urine samples ([1]; urine sample 6) | BLT (luminescence) ([1]; urine sample 6, 3% urine) | Antibiotics disc inhibition zone ([2]; urine sample 1, 40 ppm) | Antibiotics disc inhibition zone ([2]; urine sample 2, 40 ppm) | Antibiotics disc inhibition zone ([2]; urine sample 3, 40 ppm) | Antibiotics disc inhibition zone ([2]; urine sample 1, 30 ppm) | Antibiotics disc inhibition zone ([2]; urine sample 2, 30 ppm) | Antibiotics disc inhibition zone ([2]; urine sample 3, 30 ppm) | Antibiotics disc inhibition zone ([2]; urine sample 4, 30 ppm) | Antibiotics disc inhibition zone ([2]; urine sample 6, 30 ppm) | further results
CC1(C)S[C@@H]2[C@H](NC(=O)[C@H](N)c3ccccc3)C(=O)N2[C@H]1C(=O)O [Ampicillin] | R | 1 | R | 0.144 | S | 5.11 | S | 30 | R | 0.42 | S | 18 | 0 mm | 0 mm | 5 mm | – | – | – | – | – | zone of inhibition (S. typhimirium (772); disk 40 ppm): 30 mm; zone of inhibition (E. coli (W4110); disk 40 ppm): 40 mm; Antibiotics disc inhibition zone ([2]; urine sample 4, 40 ppm): 7 mm; Antibiotics disc inhibition zone ([2]; urine sample 6, 40 ppm): 5 mm
NC[C@H]1O[C@H](O[C@H]2[C@H](O)[C@@H](O[C@H]3O[C@H](CO)[C@@H](O)[C@H](N)[C@H]3O)[C@H](N)C[C@@H]2N)[C@H](O)[C@@H](O)[C@@H]1O [Kanamicin, Kanamycin] | S | 64 | S | 42 | S | 49 | S | 30 | S | 16 | S | 38 | – | – | – | 5 mm | 5 mm | 5 mm | 2 mm | 1 mm | zone of inhibition (S. typhimirium (772); disk 30 ppm): 20 mm; zone of inhibition (E. coli (W4110); disk 30 ppm): 25 mm; LU, fold increase over control (no antibiotics added) (S. typhi; 0.117 ppm): 1.4; LU, fold increase over control (no antibiotics added) (S. typhi; 0.234 ppm): 1.62; LU, fold increase over control (no antibiotics added) (S. typhi; 0.468 ppm): 1.49; LU, fold increase over control (no antibiotics added) (S. typhi; 0.937 ppm): 1.82; LU, fold increase over control (no antibiotics added) (S. typhi; 1.875 ppm): 2.3; LU, fold increase over control (no antibiotics added) (S. typhi; 3.75 ppm): 2.45; LU, fold increase over control (no antibiotics added) (S. typhi; 7.5 ppm): 3.13; LU, fold increase over control (no antibiotics added) (S. typhi; 15 ppm): 5.79; LU, fold increase over control (no antibiotics added) (S. typhi; 30 ppm): 6.27; MIC (S. typhi; Salmonella enterica, TYPHI, lowest concentration giving two-fold increase of tester luminescence above control): ~1 µg/mL (≈ 2.06 µM)
CC1(C)S[C@@H]2[C@H](NC(=O)Cc3ccccc3)C(=O)N2[C@H]1C(=O)O [Penicillin G] | R | 0.5 | R | 0.93 | S | 4 | S | 30 | R | 0.417 | S | 11 | 0 mm | 0 mm | 3 mm | – | – | – | – | – | Antibiotics disc inhibition zone ([2]; urine sample 4, 40 ppm): 7 mm; Antibiotics disc inhibition zone ([2]; urine sample 6, 40 ppm): 2 mm
Cc1nnc(SCC2=C(C(=O)O)N3C(=O)[C@@H](NC(=O)Cn4cnnn4)[C@H]3SC2)s1 [Cephamezin] | S | 61 | S | 2.3 | S | 21.8 | S | 30 | S | 16 | S | 36.8 | – | – | – | 7 mm | 5 mm | 7 mm | 5 mm | 6 mm | zone of inhibition (S. typhimirium (772); disk 30 ppm): 40 mm; zone of inhibition (E. coli (W4110); disk 30 ppm): 30 mm
CO/N=C(\C(=O)N[C@@H]1C(=O)N2C(C(=O)O)=C(COC(N)=O)CS[C@H]12)c1ccco1 [Cefuroxime] | S | 55 | S | 1.36 | S | 2.4 | S | 31 | S | 8.6 | S | 0.76 | – | – | – | 6 mm | 7 mm | 5 mm | 5 mm | 4 mm | –
Cc1onc(-c2ccccc2Cl)c1C(=O)N[C@@H]1C(=O)N2[C@@H]1SC(C)(C)[C@@H]2C(=O)[O-].[Na+] [Orbenil] | R | 0.8 | R | 0.087 | R | 0.76 | S | 30 | R | 0.63 | R | 0.18 | – | – | – | – | – | – | – | – | Antibiotics disc inhibition zone ([2]; urine sample 1, 10 ppm): 0 mm; Antibiotics disc inhibition zone ([2]; urine sample 2, 10 ppm): 0 mm; Antibiotics disc inhibition zone ([2]; urine sample 3, 10 ppm): 0 mm; Antibiotics disc inhibition zone ([2]; urine sample 4, 10 ppm): 6 mm; Antibiotics disc inhibition zone ([2]; urine sample 6, 10 ppm): 0 mm
